Reference: paper PMC6287539 (International Journal for Parasitology: Drugs and Drug …, 2018)

Tests used:
[1] = biological target: T1, Hco-ACC-1 (in the Hco-ACC-1/2 heteromeric channel) (Haemonchus contortus, UniProt A0A219KVV5+A0A219KWM7); experiment: two-electrode voltage clamp in Xenopus oocytes, dose-response; assay type: cell-based
T1 sequence (A0A219KVV5 23-459): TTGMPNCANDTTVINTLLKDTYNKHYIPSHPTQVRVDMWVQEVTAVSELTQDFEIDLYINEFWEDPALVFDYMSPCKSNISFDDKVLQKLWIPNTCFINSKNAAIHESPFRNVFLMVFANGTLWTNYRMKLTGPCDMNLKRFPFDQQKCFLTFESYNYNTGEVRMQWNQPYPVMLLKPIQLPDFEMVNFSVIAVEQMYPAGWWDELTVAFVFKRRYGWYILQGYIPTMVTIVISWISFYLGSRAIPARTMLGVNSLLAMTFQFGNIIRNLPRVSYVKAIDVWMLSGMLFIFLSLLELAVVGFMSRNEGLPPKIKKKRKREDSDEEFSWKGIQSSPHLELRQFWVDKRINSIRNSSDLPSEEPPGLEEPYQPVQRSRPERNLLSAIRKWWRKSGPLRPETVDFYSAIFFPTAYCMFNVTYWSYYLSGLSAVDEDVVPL
T1 sequence (A0A219KWM7 18-443): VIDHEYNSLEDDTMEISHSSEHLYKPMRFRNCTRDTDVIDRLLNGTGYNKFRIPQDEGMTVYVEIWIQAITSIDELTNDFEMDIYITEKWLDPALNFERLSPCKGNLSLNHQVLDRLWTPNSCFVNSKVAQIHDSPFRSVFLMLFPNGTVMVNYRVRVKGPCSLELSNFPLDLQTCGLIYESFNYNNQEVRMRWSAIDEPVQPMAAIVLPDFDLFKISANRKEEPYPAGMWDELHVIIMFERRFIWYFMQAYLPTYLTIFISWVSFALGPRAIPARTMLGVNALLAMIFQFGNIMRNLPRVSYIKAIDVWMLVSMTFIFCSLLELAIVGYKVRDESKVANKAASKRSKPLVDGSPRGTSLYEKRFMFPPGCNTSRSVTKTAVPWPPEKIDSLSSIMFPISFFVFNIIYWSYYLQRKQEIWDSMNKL

[2] = biological target: T2, Hco-ACC-2 (homomeric channel) (Haemonchus contortus, UniProt A0A219KWM7); experiment: as above; assay type: cell-based
T2 sequence (A0A219KWM7 18-443): T1 sequence (A0A219KWM7 18-443)

- EC50 [1]: 32.5 ± 3 µM
- EC50 [2]: 46 ± 2 µM
Compound: C[N+](C)(C)CCOC(N)=O [carbachol]
